Measured values published in ChEMBL document CHEMBL1909046, “DrugMatrix in vitro pharmacology data”.

Assays:
[1] = target: Sodium-dependent noradrenaline transporter (Homo sapiens, UniProt P23975); experiment: DRUGMATRIX: Norepinephrine Transporter radioligand binding (ligand: [125I] RTI-55); type: cell membranes, MDCK, Membrane; conditions: Not Active = under 50% inhibition at 10 µM; for Ki: read-out: Ki
D(4) dopamine receptor = target: T1, D(4) dopamine receptor (Homo sapiens, UniProt P21917); experiment: DRUGMATRIX: Dopamine D4.2 radioligand binding (ligand: [3H] Spiperone); type: cell membranes, CHO-K1, Membrane; conditions: cho-k1; Not Active = under 50% inhibition at 10 µM
T1 sequence (P21917 whole entry): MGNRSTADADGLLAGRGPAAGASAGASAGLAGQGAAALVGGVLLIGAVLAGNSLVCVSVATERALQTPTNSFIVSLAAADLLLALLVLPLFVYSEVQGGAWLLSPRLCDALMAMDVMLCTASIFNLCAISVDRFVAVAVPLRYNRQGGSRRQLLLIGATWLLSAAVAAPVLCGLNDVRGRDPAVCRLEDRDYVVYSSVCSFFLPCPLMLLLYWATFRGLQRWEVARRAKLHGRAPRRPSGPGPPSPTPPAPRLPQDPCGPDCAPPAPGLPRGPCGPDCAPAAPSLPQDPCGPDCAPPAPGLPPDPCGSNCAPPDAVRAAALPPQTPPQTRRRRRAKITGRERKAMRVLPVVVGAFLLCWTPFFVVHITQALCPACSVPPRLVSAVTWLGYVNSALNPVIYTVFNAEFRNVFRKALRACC

Melanocortin receptor 3 = Melanocortin receptor 3 (Homo sapiens, UniProt P41968); type: cell membranes, HEK293, Membrane; conditions: hek293; further: in other assays of this panel Not Active means under 50% inhibition at 10 µM
[2] = target: T2, Nitric oxide synthase, inducible (Mus musculus, UniProt P29477); set-up: species or system Escherichia coli;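 further: inhibition of iNOS enzyme activity measured with L-arginine as substrate; in other assays of this panel Not Active means under 50% inhibition at 10 µM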
T2 sequence (P29477 whole entry): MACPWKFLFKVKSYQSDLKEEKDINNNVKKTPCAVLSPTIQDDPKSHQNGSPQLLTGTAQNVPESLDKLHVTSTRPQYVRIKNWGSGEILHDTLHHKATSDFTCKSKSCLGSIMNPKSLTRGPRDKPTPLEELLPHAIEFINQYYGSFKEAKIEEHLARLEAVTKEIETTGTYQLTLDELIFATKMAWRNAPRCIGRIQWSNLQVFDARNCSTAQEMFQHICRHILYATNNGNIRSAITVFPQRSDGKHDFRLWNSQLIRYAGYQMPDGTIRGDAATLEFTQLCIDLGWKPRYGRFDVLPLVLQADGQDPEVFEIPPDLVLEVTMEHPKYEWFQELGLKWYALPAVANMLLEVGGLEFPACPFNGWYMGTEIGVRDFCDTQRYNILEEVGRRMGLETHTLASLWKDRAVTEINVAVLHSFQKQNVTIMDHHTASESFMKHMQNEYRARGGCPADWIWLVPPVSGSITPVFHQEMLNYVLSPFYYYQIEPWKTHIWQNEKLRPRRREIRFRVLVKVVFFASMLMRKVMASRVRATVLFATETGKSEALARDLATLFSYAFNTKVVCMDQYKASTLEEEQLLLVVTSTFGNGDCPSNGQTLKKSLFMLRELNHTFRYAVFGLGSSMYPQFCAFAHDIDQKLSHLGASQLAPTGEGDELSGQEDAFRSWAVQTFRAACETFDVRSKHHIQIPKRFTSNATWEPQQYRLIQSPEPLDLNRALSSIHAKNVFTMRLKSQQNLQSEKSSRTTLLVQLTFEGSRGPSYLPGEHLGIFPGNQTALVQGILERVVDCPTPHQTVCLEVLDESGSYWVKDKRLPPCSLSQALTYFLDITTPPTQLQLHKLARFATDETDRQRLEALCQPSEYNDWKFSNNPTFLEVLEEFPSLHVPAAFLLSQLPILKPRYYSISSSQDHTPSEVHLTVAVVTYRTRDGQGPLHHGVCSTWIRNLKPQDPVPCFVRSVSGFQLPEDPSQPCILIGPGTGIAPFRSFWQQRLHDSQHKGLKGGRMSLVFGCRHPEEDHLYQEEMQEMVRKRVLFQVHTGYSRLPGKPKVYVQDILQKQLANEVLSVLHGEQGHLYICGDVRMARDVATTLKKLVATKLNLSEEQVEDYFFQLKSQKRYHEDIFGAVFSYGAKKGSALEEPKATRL

Caspase-1 = target: T3, Caspase-1 (Homo sapiens, UniProt P29466); set-up: species or system Escherichia coli;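 further: Caspase-1 enzyme inhibition assay with a peptide substrate; in other assays of this panel Not Active means under 50% inhibition at 10 µM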
T3 sequence (P29466 whole entry): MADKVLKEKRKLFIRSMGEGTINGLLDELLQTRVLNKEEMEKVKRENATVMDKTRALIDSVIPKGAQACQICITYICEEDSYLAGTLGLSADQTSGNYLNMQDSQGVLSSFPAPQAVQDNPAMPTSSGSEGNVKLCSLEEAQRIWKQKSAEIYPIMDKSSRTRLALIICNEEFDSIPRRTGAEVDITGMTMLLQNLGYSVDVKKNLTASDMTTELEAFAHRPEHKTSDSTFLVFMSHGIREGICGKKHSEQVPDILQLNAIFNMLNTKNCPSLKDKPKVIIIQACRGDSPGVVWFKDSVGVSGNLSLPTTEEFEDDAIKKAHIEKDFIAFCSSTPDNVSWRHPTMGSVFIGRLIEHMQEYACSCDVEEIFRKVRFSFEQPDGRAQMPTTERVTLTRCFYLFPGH

Adenosine receptor A3 = target: T4, Adenosine receptor A3 (Homo sapiens, UniProt P0DMS8); type: cell membranes, CHO-K1, Membrane;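 further: radioligand binding assay with AB-MECA serving as the labeled ligand; in other assays of this panel Not Active means under 50% inhibition at 10 µM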
T4 sequence (P0DMS8 whole entry): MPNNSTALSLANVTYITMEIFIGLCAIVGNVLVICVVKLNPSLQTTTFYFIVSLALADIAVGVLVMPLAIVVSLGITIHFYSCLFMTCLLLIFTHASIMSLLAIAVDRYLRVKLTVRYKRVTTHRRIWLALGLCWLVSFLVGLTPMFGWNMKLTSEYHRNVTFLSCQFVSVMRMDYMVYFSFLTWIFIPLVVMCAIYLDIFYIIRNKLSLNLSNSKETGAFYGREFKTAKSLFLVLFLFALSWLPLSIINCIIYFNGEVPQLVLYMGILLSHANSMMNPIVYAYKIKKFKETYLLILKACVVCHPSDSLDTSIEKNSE

[3] = target: Voltage-gated inwardly rectifying potassium channel KCNH2 (Homo sapiens, UniProt Q12809); conditions: hek293; further: in other assays of this panel Not Active means under 50% inhibition at 10 µM
Cytochrome P450 2C9 = Cytochrome P450 2C9 (Homo sapiens, UniProt P11712); conditions: bti-tn-5b1-4; further: in other assays of this panel Not Active means under 50% inhibition at 10 µM
Chain of Cytochrome P450 2C9 (P11712 whole entry): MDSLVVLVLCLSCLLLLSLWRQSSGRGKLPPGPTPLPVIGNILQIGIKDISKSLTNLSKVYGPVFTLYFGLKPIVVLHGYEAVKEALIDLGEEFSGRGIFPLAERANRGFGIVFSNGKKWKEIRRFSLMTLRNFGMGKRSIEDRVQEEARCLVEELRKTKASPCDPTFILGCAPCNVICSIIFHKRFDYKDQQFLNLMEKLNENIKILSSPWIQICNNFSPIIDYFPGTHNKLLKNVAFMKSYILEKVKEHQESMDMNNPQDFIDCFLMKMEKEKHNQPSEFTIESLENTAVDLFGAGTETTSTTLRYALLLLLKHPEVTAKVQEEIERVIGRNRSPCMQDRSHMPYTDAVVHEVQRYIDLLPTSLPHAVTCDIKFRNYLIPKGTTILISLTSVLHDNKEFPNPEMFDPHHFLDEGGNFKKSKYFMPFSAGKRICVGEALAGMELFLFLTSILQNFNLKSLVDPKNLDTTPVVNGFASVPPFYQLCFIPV

Chain of Sodium-dependent noradrenaline transporter (P23975 whole entry): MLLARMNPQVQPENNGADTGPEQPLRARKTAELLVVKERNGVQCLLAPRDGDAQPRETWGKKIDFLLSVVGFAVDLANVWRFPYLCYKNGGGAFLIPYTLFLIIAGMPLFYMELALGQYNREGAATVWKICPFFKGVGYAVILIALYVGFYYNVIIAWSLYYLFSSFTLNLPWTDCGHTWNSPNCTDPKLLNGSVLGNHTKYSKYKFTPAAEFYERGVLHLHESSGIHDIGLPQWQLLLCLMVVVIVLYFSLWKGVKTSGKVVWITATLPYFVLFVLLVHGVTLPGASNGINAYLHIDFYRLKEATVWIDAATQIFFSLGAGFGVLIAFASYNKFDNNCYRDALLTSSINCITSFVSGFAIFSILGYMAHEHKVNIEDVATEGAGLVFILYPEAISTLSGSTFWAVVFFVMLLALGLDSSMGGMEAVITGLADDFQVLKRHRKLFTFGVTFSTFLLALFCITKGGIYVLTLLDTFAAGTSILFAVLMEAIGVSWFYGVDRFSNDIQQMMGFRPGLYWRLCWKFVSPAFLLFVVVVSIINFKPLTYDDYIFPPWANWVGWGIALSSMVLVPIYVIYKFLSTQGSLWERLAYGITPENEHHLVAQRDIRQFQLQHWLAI
Chain of Voltage-gated inwardly rectifying potassium channel KCNH2 (Q12809 whole entry): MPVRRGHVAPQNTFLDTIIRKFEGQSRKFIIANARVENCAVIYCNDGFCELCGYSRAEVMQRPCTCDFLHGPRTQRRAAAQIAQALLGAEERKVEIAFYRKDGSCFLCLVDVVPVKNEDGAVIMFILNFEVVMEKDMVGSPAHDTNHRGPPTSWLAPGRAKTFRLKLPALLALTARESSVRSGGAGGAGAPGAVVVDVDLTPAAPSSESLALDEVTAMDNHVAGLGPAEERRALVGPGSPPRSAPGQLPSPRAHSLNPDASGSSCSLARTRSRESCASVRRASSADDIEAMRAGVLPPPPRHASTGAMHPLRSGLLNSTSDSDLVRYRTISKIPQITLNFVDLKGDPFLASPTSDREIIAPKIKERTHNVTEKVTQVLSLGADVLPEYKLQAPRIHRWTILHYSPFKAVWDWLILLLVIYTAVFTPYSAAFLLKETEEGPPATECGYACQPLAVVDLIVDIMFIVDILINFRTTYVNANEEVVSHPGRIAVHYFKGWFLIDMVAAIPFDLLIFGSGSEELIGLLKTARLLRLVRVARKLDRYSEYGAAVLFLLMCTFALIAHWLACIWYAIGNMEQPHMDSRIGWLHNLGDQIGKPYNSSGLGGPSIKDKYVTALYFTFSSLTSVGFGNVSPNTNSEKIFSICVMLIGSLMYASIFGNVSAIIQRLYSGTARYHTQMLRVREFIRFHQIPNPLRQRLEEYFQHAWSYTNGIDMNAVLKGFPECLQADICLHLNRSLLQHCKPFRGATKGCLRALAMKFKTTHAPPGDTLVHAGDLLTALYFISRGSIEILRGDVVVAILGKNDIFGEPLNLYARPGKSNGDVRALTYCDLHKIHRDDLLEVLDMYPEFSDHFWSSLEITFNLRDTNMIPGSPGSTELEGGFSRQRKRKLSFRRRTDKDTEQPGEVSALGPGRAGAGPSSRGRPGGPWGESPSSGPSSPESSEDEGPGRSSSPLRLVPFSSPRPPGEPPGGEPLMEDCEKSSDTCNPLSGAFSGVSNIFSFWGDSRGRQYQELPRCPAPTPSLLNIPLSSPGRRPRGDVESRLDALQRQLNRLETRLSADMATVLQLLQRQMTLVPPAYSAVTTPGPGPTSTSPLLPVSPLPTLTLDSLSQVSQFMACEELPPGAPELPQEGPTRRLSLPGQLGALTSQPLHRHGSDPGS
Chain of Melanocortin receptor 3 (P41968 whole entry): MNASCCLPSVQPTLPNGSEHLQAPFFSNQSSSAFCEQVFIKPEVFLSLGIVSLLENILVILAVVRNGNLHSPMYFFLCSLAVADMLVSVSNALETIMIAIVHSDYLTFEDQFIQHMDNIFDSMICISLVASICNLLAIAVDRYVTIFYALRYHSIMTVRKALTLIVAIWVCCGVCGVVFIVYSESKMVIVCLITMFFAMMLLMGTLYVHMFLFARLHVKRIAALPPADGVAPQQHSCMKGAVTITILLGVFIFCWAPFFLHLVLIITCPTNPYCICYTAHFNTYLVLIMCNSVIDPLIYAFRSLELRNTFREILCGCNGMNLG

SMILES	IC50 ([1]; mdck)	IC50 (D(4) dopamine receptor)	IC50 (Melanocortin receptor 3)	IC50 [2]	IC50 (Caspase-1)	IC50 (Adenosine receptor A3; cho-k1)	IC50 [3]	Ki [3]	IC50 ([1]; read-out: IC50)	Ki [1]	IC50 (Adenosine receptor A3; read-out: IC50)	Ki (Adenosine receptor A3; read-out: Ki)	IC50 (Cytochrome P450 2C9)	Ki (Cytochrome P450 2C9)
C[C@H]1C[C@H]2[C@@H]3CCC4=CC(=O)C=C[C@]4(C)[C@@]3(F)[C@@H](O)C[C@]2(C)[C@@]1(O)C(=O)CO [BETAMETHASONE]	Not Active	Not Active	Not Active	Not Active	Not Active	Not Active	Not Active	Not Active	–	–	–	–	–	–
CN(CCOc1ccc(C[C@H](Nc2ccccc2C(=O)c2ccccc2)C(=O)O)cc1)c1ccccn1	–	Not Active	Not Active	Not Active	Not Active	–	Not Active	Not Active	40.3 µM	40 µM	14.3 µM	8.09 µM	–	–
NS(=O)(=O)c1cc(C(=O)O)c(NCc2ccco2)cc1Cl [FUROSEMIDE]	Not Active	Not Active	Not Active	Not Active	Not Active	Not Active	–	–	–	–	–	–	–	–
CCN(CCO)CCCC(C)Nc1ccnc2cc(Cl)ccc12 (configuration not stated) [HYDROXYCHLOROQUINE]	Not Active	Not Active	Not Active	Not Active	Not Active	Not Active	Not Active	Not Active	–	–	–	–	–	–
CC(C)NCC(O)COc1ccc(CC(N)=O)cc1 (configuration not stated) [ATENOLOL]	Not Active	Not Active	Not Active	Not Active	Not Active	Not Active	–	–	–	–	–	–	–	–
COc1ccc(Cl)cc1C(=O)NCCc1ccc(S(=O)(=O)NC(=O)NC2CCCCC2)cc1 [GLYBURIDE]	Not Active	Not Active	Not Active	Not Active	Not Active	Not Active	–	–	–	–	–	–	–	–
CCN1CCN(C(=O)N[C@@H](C(=O)N[C@@H]2C(=O)N3[C@@H]2SC(C)(C)[C@@H]3C(=O)O)c2ccccc2)C(=O)C1=O [PIPERACILLIN]	Not Active	Not Active	Not Active	Not Active	Not Active	Not Active	–	–	–	–	–	–	Not Active	Not Active
O=C(O)CNCP(=O)(O)O [GLYPHOSATE]	Not Active	Not Active	Not Active	Not Active	Not Active	Not Active	Not Active	Not Active	–	–	–	–	–	–
COc1ccccc1OCCNCC(O)COc1cccc2[nH]c3ccccc3c12 (configuration not stated) [CARVEDILOL]	–	Not Active	Not Active	Not Active	Not Active	Not Active	–	–	0.538 µM	0.533 µM	–	–	Not Active	Not Active
NC(N)=Nc1nc(CSCCC(N)=NS(N)(=O)=O)cs1 [FAMOTIDINE]	Not Active	Not Active	Not Active	Not Active	Not Active	Not Active	–	–	–	–	–	–	Not Active	Not Active
